Laboratory results: article PMC10552532, “Evaluation of anti-cancer effects of carnosine and melittin-loaded niosomes in MCF-7 and MDA-MB-231 breast cancer cells” (Frontiers in Pharmacology, 2023)

Tests used:
[1] = In vitro drug release from dialysis bag; type: physicochemical; conditions: first 6 h, pH 5.4, 37°C
Experimental: A dialysis bag (MWCO = 12 kDa) was used to compare 2 mL of free drugs, Car-NIO and Mel-NIO for drug release (in vitro). This bag was placed in a phosphate buffered saline (PBS) solution (50 mL, 1X, pH = 5.4) with slow stirring (50 rpm) at 37°C. At certain intervals, a portion of the PBS solution was removed and replaced with a new aliquot.

MCF-7 cells [2] = test: MTT cytotoxicity assay; type: cell-based; conditions: Homo sapiens, MCF7, MCF-7, 48 h, read-out: IC50 (viability)
Experimental: (§1) The 3-(4,5-dimethylthiazol-2-yl)-2,5-diphenyl-2H-tetrazolium bromide (MTT) assay is a colorimetric method that uses the transformation of yellow MTT into purple formazan. The following procedures were carried out in a clean environment using MTT Assay Kit (Cell Proliferation) (catalog number: ab211091, Abcam, United Kingdom), with the use of a Laminar flow cabinet meeting biosafety standard II (Baker, SG403INT, Sanford, ME, United States), l0^4 cells/well were subjected to varying doses of Car-NIO (5, 10, 25, 50, and 100 μM) ([Tehrani et al., 2018]) and Mel-NIO (5, 10, 25, 50, and 100 μM) ([Yaacoub et al., 2021]) and olaparib (5, 10, 25, 50, and 100 μM) ([Ashmawy et al., 2017]). After 48 h, we added 2.5 μg/mL of MTT to each well and incubated the plates at 37°C for another 4 h. After the formation of formazan crystals, 10% sodium dodecyl sulfate (200 μL/well) was used to dissolve the crystals. We measured the absorbance at 595 nm, and a positive control that causes 100% mortality under the same conditions was utilized. Using the following formula, the change in viability was given as a percentage was calculated: Cytotoxicity %=Extract reading/Negative control reading x100
(§2) Viability % = 100- Cytotoxicity%, The impact of each treatment is measured by its IC50 (the concentration at which 50% of the viability is inhibited).

MDA-MB-231 cells [3] = test: MTT cytotoxicity assay; type: cell-based; conditions: Homo sapiens, MDA-MB-231, 48 h, read-out: IC50 (viability)
Experimental: as §1, §2

MCF-7 cells [4] = test: Quantitative RT-PCR of marker genes; type: cell-based; conditions: MCF-7, vs untreated cancer cells
Description: (§3) The cells’ total RNA was extracted with the help of the RNA Mini Kit from Ambion by Life Technologies by Thermo Scientific (catalog number: 12183018A). To ensure the integrity of the RNA samples, we used a NanoDrop® ND-1000 Spectrophotometer from NanoDrop Technologies in Wilmington, Delaware, United States A High Capacity cDNA Reverse Transcription Kit (catalog number: 4374966) from Thermo Scientific was then used to amplify the cDNA. The Maxima SYBR Green qPCR Master Mix (2X) kit from Thermo Scientific, (catalog number: K0251), was used for real-time PCR amplification ([Shehata et al., 2018]). The housekeeping GADPH (for mRNA) or U6 (for miRNA) were used as a standard. The 2^−∆∆ct formula was used to calculate the levels of target gene expression ([Livak and Schmittgen, 2001]). Table 1 contains the sequences of the desired gene primers.

MDA-MB-231 cells [5] = test: Quantitative RT-PCR of marker genes; type: cell-based; conditions: MDA-MB-231, vs untreated cancer cells
Description: as §3

[6] = tested on: human epidermal growth factor receptor 2-negative, metastatic breast cancer and a hereditary BRCA mutation; design: method as in Tutt et al., 2021; conditions: olaparib monotherapy rather than the standard treatment; ref Tutt et al., 2021; cited from earlier work
MCF-7 cells [7] = test: Lipid peroxidation (MDA) detection; type: cell-based; conditions: MCF-7, 48 h at IC50 concentration, vs untreated cancer cells
Experimental: (§4) For this assay, the cells (2 × 10^6 cells/mL) were seeded onto 96-well culture plates to determine lipid peroxidation levels. Following a 48-h incubation with Car-NIO (48.83, 51.4 μM), Mel-NIO (21.23, 43.65 μM), and olaparib (23.31, 32.55 μM), cells were collected and washed twice with phosphate-buffered saline. The cells were harvested with a sonicator probe (VCX-130 W, Newtown, United States) on ice, and then disrupted by ultra-sonication for 5 s. Following the manufacturer’s guidelines for best results, the malondialdehyde (MDA) was detected in the cell extract using the MDA test kit (catalog number: ab287797, Abcam, United Kingdom). The microplate reader was used to determine the MDA concentration at a wavelength of 532 nm (Tecan, Mannedorf, Switzerland) ([Gérard-Monnier et al., 1998]).

MDA-MB-231 cells [8] = test: Lipid peroxidation (MDA) detection; type: cell-based; conditions: MDA-MB-231, 48 h at IC50 concentration, vs untreated cancer cells
Experimental: as §4

MCF-7 cells [9] = test: Cell cycle distribution by flow cytometry (propidium iodide); type: cell-based; conditions: MCF-7, 48 h at IC50 concentration
Experimental: (§5) Overnight, the cells were cultured in 100-mm plates at a density of 2 × 10^6 cells/mL per well using fresh culture media. Treatment with Car-NIO (48.83, 51.4 μM), Mel-NIO (21.23, 43.65 μM), and olaparib (23.31, 32.55 μM) for 48 h began the next day. After harvesting, the cells were fixed in 70% ethanol at […] for 12 h. After that, the cells were exposed to RNase (10 mg/mL) and propidium iodide (50 μg/mL) for 30 min. The cell cycle distribution was analyzed using flow cytometry, and the data were analyzed using FlowJo (TreeStar, Ashland, OR, United States) ([Mei et al., 2019]).

MDA-MB-231 cells [10] = test: as above; type: cell-based; conditions: MDA-MB-231, 48 h at IC50 concentration
Experimental: as §5

## melittin
[1]
  drug release: 72.3%

## NCCC(=O)N[C@@H](Cc1cnc[nH]1)C(=O)O [carnosine, β-alanyl-L-histidine]
[1]
  drug release: 43%

## O=C(c1cc(Cc2n[nH]c(=O)c3ccccc23)ccc1F)N1CCN(C(=O)C2CC2)CC1 [olaparib]
MCF-7 cells [2]
  IC50: 23.3 µM
MDA-MB-231 cells [3]
  IC50: 32.5 µM
MCF-7 cells [4]; U6 as standard
  expression level of miRNA-183: significant downregulation
MCF-7 cells [4]; relative to GADPH
  expression level of Bcl2: significant downregulation
  expression level of FOXO3: significantly upregulated
  expression level of PARP 1: significant downregulation
  expression level of PDCD4: significantly upregulated
  mRNA expression of Bax: significant upregulation
  mRNA expression of P53: significant upregulation
  mRNA expression of caspase-3: significant upregulation
  mRNA expression of caspase-9: significant upregulation
MDA-MB-231 cells [5]; U6 as standard
  expression level of miRNA-183: significant downregulation
MDA-MB-231 cells [5]; relative to GADPH
  expression level of Bcl2: significant downregulation
  expression level of FOXO3: significantly upregulated
  expression level of PARP 1: significant downregulation
  expression level of PDCD4: significantly upregulated
  mRNA expression of Bax: significant upregulation
  mRNA expression of P53: significant upregulation
  mRNA expression of caspase-3: significant upregulation
  mRNA expression of caspase-9: significant upregulation
[6]
  extension of median progression-free survival: 2.8 months
MCF-7 cells [7]
  MDA level: significant downregulation
MDA-MB-231 cells [8]
  MDA level: significant downregulation
MCF-7 cells [9]
  cells in G0/1 phase: 63.2%
  cells in S phase: 8.6%
MDA-MB-231 cells [10]
  cells in G0/1 phase: 83.0%
  cells in S phase: 3.2%
